The text below walks through data of patent publication US20110070320A1, “BIODEGRADABLE THERMORESPONSIVE 3-ARM POLYETHYLENE GLYCOL POLY(LACTIDE-CO-GLYCOLIDE) COPOLYMER FOR GINSENG ADMINISTRATION” (priority 2009, published 2011).

Common to all, as to assay type: physicochemical
Data set [1] can be described thus: Doxorubicin release from copolymer aqueous gel. The settings on record: 37° C.; 20% (w/w) copolymer gel; FIG. 3. How it is done:
Doxorubicin was used as a hydrophilic drug in a drug release study using the copolymer of EXAMPLE 1 in a 20% (w/w) aqueous solution. The drug (4 mg) was dissolved in 2 ml of the polymer solution. The drug/polymer solution was filtered through a 0.2 μm syringe and an aliquot of 0.5 ml of the solution was added to each sample vial. The triplet samples were placed in a water bath preheated and stabilized at 37° C. After 10 min a buffer solution of 1×PBS (1 ml, preheated at 37° C.) was added to each sample vial containing a gelled drug/polymer solution. The drug contents in the release media, which were removed and replaced with fresh PBS solutions at each sampling point, were determined at 1, 3, 6 h and then daily for 8 days by a spectrophotometer (SpecraMax M2 by Molecular Devices).

Data set [2] in a line: Paclitaxel release from copolymer aqueous gel. The settings on record: 37° C.; 20% (w/w) copolymer gel; FIG. 2. How it is done:
Paclitaxel was used as a hydrophobic drug in a drug release study using the copolymer of EXAMPLE 1 in a 20% (w/w) aqueous solution. The drug (4 mg) was added to a 4 ml vial containing 0.2 ml of the polymer solution. At 4° C. the sample vial was sonicated for 15 min and vortexed for 16 h and sonicated for 15 min again to give a slightly cloudy suspension. After filtered through a 0.2 μm syringe filter an aliquot (0.2 ml) of the solution was added to each sample vial. The triplet samples were placed in a water bath preheated and stabilized at 37° C. After 10 min a buffer solution of 1×PBS (3 ml, preheated at 37° C.) containing 2.4% (w/w) of Tween 80 and 4% (w/w) of Cremophor EL was added to each sample vial containing a gelled drug/polymer solution. The drug release was determined by taking an aliquot of the medium from each sample vial at 1.5 h, 6 h and then daily for 10 days and analyzing the drug content of the sample by HPLC (mobile phase 1 ml/min 50/50 acetonitrile/deioned water, wavelength 227 nm, running time 15 min).

The nature of data set [3]: Enhanced drug solubility in polymer gel (HPLC). The settings on record: aqueous solution of Example 1 polymer (20% w/w); filtered 0.2 μm.
Protocol: In a 4 ml vial the polymer from EXAMPLE 1 (200 mg) and paclitaxel (2 mg) were dissolved in acetone (1·ml). The mixture was evaporated under vacuum for 16 h. Deionized water (0.8 ml) was added and the mixture was stirred at 4° C. for 24 h. The resulting solution was filtered through a 0.2 μm syringe filter to give a clear solution. An aliquot of the solution was diluted 100-fold with acetonitrile and analyzed for paclitaxel by HPLC (mobile phase: water/acetonitrile 1:1, 1 ml/min, injection volume: 20 μl, running time: 15 min, column: Waters Symmetry 300™ 4.6×250 mm, C18 5 μm, detector: Waters 2996).

As for `COc1cccc2c1C(=O)c1c(O)c3c(c(O)c1C2=O)C[C@@](O)(C(=O)CO)C[C@@H]3O[C@H]1C[C@H](N)[C@H](O)[C@H](C)O1` [doxorubicin, Doxorubicin], in data set [1], the “duration of controlled drug release from copolymer aqueous gel” value was found to be 8 days.

Consider `CC(=O)O[C@H]1C(=O)[C@@]2(C)[C@H]([C@H](OC(=O)c3ccccc3)[C@]3(O)C[C@H](OC(=O)[C@H](O)[C@@H](NC(=O)c4ccccc4)c4ccccc4)C(C)=C1C3(C)C)[C@]1(OC(C)=O)CO[C@@H]1C[C@@H]2O` [paclitaxel, Paclitaxel], for which the “duration of controlled drug release from copolymer aqueous gel” value in data set [2] turned out to be 10 days. Moreover, the “paclitaxel content in the aqueous solution” value in data set [3] was 6.4 mg/mL.
